The text below walks through data of patent publication US7745420B2, “Methods for increasing in vivo efficacy of oligonucleotides and inhibiting inflammation in mammals” (Topigen Pharmaceutique, Inc., priority 2001, dated 2010).

[DAP] = 2,6-diaminopurine base (2-amino-2'-deoxyadenosine) replacing adenine

Data set [1] relates to common Beta chain of human GM-CSF, IL-3 and IL-5 receptor. In words: Semi-quantitative RT-PCR of common beta chain mRNA in U937 cells treated with antisense. Format: cell-based. The settings on record: compared with AS107 containing adenosine, G3PDH housekeeping gene. On the procedure: Experiments were performed to assess whether antisense oligonucleotides described in international application WO 99/66037 (incorporated herein) directed against the common beta sub-unit of the IL-3, IL-5 and GM-CSF receptor, could inhibit the expression and the function of this receptor when modified by replacing adenosine by either 2-amino-2′-deoxyadenosine or inosine. TF-1 and U937 cells express high levels of GM-CSF receptors. In addition, TF-1 cells are dependent on GM-CSF for survival. These cells were cultured in RPMI 1640 supplemented with 10% heat-inactivated fetal calf serum, penicillin, streptomycin and 1-glutamine at 37° C. in 5% CO2 (the TF-1 cells were supplemented with GM-CSF). […] The sequence for 107A-DAP was: 5′-GGGTCTGCDapGCGGGDapTGGT-3′ (SEQ ID NO:21); the sequence for 107A-inosine (107A-I) was: 5′-GGGTCTGCIGCGGGIT GGT-3′ (SEQ ID NO:22). The cells were retrieved and washed 3 times. RNA was then retrieved and the presence of the beta chain of the receptor was assessed by semi-quantitative RT-PCR.

For data set [2] the test system is unchanged. Kind of data set: Semi-quantitative RT-PCR of common beta chain mRNA in TF-1 cells treated with antisense. Format: cell-based. The settings on record: TF1 cells; compared with AS107 containing adenosine. On the procedure:
Experiments were performed to assess whether antisense oligonucleotides described in international application WO 99/66037 (incorporated herein) directed against the common beta sub-unit of the IL-3, IL-5 and GM-CSF receptor, could inhibit the expression and the function of this receptor when modified by replacing adenosine by either 2-amino-2′-deoxyadenosine or inosine. TF-1 and U937 cells express high levels of GM-CSF receptors. In addition, TF-1 cells are dependent on GM-CSF for survival. These cells were cultured in RPMI 1640 supplemented with 10% heat-inactivated fetal calf serum, penicillin, streptomycin and 1-glutamine at 37° C. in 5% CO2 (the TF-1 cells were supplemented with GM-CSF). For 12 hours they were either cultured in medium alone or medium with sense (107S: 5′-ACCAT CCCGCTGCAGACCC-3′ (SEQ ID NO:19) or antisense (107A: 5′-GGGTCTGCAGCGGGATGGT-3′; SEQ ID NO:20) oligonucleotides to the common beta sub-unit of the IL-3, IL-5 and GM-CSF receptor. The sequence for 107A-DAP was: 5′-GGGTCTGCDapGCGGGDapTGGT-3′ (SEQ ID NO:21); the sequence for 107A-inosine (107A-I) was: 5′-GGGTCTGCIGCGGGIT GGT-3′ (SEQ ID NO:22). The cells were retrieved and washed 3 times. RNA was then retrieved and the presence of the beta chain of the receptor was assessed by semi-quantitative RT-PCR.

The test system of data set [3] is human immunodeficiency virus (HIV). The settings on record: Balzarini et al. 1987; cited from earlier work.
For the next data set, the system named is lungs/airways. The settings on record: in vivo; cited from earlier work.

For “5′-GGGTCTGCDapGCGGGDapTGGT-3′ (DNA GGGTCTGCNGCGGGNTGGT; DNA, [DAP] at 9, 15, backbone and methylation of C not given here) [AS107-DAP]”, the “blocking the mRNA for the common Beta chain, semi-quantitative PCR” value in data set [1] is given as “at least equally effective”. For the same molecule, in data set [2], the “blocking mRNA expression of the common Beta chain, semi-quantitative PCR” value is reported as “at least equally effective”.

On to `Nc1nc(N)c2ncn([C@H]3CC[C@@H](CO)O3)c2n1` [2-amino-2′,3′-dideoxyadenosine], for which the “inhibition of HIV replication in vitro” value in data set [3] is “capable of selectively inhibiting”.

Regarding `OC[C@H]1O[C@@H](n2cnc3c(O)ncnc32)[C@H](O)[C@@H]1O` [inosine], the “bronchoconstriction of the lungs/airways compared to adenosine” value with lungs/airways is on record as “does not cause bronchoconstriction”.
